Reference: ChEMBL document CHEMBL5096149, “Recent Update on Targeting c-MYC G-Quadruplexes by Small Molecules for Anticancer Therapeutics” (J Med Chem, 2021)
Blank lines part the entries; values can stand above or below the compound they belong to.

Key:
Quadruplex DNA [1] = experiment: Binding affinity to c-MYC G-quadruplex DNA (unknown origin) assessed as first order binding constant by surface plasmon resonance analysis; assay type: nucleic-acid assay
Quadruplex DNA [2] = experiment: Binding affinity to c-MYC G-quadruplex DNA (unknown origin) assessed as second order binding constant by surface plasmon resonance analysis; assay type: nucleic-acid assay
Quadruplex DNA [3] = experiment: Thermal stabilization of c-MYC G-quadruplex (Pu47) DNA (unknown origin) assessed as change in melting temperature at 1:5 ratio by FRET melting assay; assay type: nucleic-acid assay
Raji = experiment: Cytotoxicity against human Raji cells assessed as reduction in cell viability by MTS assay; assay type: functional, cell-based
CA46 [4] = experiment: Cytotoxicity against human CA46 cells assessed as reduction in cell viability by MTS assay; assay type: functional, cell-based
Quadruplex DNA [5] = experiment: Binding affinity to c-MYC G-quadruplex DNA (unknown origin) assessed as association rate constant by UV-Vis spectroscopy; assay type: nucleic-acid assay
Quadruplex DNA [6] = experiment: Thermal stabilization of c-MYC G-quadruplex DNA (unknown origin) assessed as change in melting temperature at 1:3 ratio by circular dichroism spectroscopy; assay type: nucleic-acid assay
Quadruplex DNA [7] = experiment: Binding affinity to c-MYC G-quadruplex DNA (unknown origin) assessed as association constant by fluorescence spectroscopy; assay type: nucleic-acid assay
Quadruplex DNA [8] = experiment: Thermal stabilization of c-MYC G-quadruplex DNA (unknown origin) assessed as change in melting temperature at 1:10 ratio by FRET melting assay; assay type: nucleic-acid assay
HCT-116 [9] = experiment: Cytotoxicity against human HCT-116 cells assessed as reduction in cell viability incubated for 24 hrs by MTT assay; assay type: functional, cell-based; conditions: HCT-116, 24 h
Quadruplex DNA [10] = experiment: Binding affinity to c-MYC G-quadruplex (Mer22) DNA (unknown origin) assessed as first order binding constant by isothermal titration calorimetry method; assay type: nucleic-acid assay
Quadruplex DNA [11] = experiment: Binding affinity to c-MYC G-quadruplex (Mer22) DNA (unknown origin) assessed as second order binding constant by isothermal titration calorimetry method; assay type: nucleic-acid assay
Quadruplex DNA [12] = experiment: Binding affinity to c-MYC G-quadruplex (Mer22) DNA (unknown origin) assessed as association rate constant by surface plasmon resonance analysis; assay type: nucleic-acid assay
Quadruplex DNA [13] = experiment: Thermal stabilization of c-MYC G-quadruplex (Mer22) DNA (unknown origin) assessed as change in melting temperature at 1:3 ratio by UV-Vis spectroscopy; assay type: nucleic-acid assay
Quadruplex DNA [14] = experiment: Thermal stabilization of c-MYC G-quadruplex (Mer22) DNA (unknown origin) assessed as change in melting temperature at 1:3 ratio by FRET melting assay; assay type: nucleic-acid assay
Quadruplex DNA [15] = experiment: Binding affinity to c-MYC G-quadruplex DNA (unknown origin) assessed as association rate constant by fluorometric titration method; assay type: nucleic-acid assay
Quadruplex DNA [16] = experiment: Thermal stabilization of c-MYC G-quadruplex DNA (unknown origin) assessed as change in melting temperature at 1:5 ratio by circular dichroism spectroscopy; assay type: nucleic-acid assay
L-363 = experiment: Cytotoxicity against human L-363 cells assessed as inhibition of cell viability incubated for 72 hrs by MTS assay; assay type: functional, cell-based; conditions: L-363, 72 h
[17] = Cytotoxicity against human ARD cells assessed as inhibition of cell viability incubated for 72 hrs by MTS assay; assay type: functional, cell-based
[18] = Cytotoxicity against human JIM1 cells assessed as inhibition of cell viability incubated for 72 hrs by MTS assay; assay type: functional, cell-based; conditions: JIM1, 72 h
[19] = Cytotoxicity against human KMM-1 cells assessed as inhibition of cell viability incubated for 72 hrs by MTS assay; assay type: functional, cell-based; conditions: KMM-1, 72 h
KMS-12-PE = experiment: Cytotoxicity against human KMS-12-PE cells assessed as inhibition of cell viability incubated for 72 hrs by MTS assay; assay type: functional, cell-based
[20] = Cytotoxicity against human KMS-27 cells assessed as inhibition of cell viability incubated for 72 hrs by MTS assay; assay type: functional, cell-based; conditions: KMS-27, 72 h
AMO1 = experiment: Cytotoxicity against human AMO1 cells assessed as inhibition of cell viability incubated for 72 hrs by MTS assay; assay type: functional, cell-based; conditions: AMO1, 72 h
Quadruplex DNA [21] = experiment: Binding affinity to c-MYC G-quadruplex DNA (unknown origin) assessed as association rate constant by surface plasmon resonance analysis; assay type: nucleic-acid assay
Quadruplex DNA [22] = experiment: Thermal stabilization of c-MYC G-quadruplex DNA (unknown origin) assessed as change in melting temperature at 1:4 ratio by circular dichroism spectroscopy; assay type: nucleic-acid assay
[23] = Cytotoxicity against human OPM-1 cells assessed as inhibition of cell viability incubated for 72 hrs by MTS assay; assay type: functional, cell-based; conditions: OPM-1, 72 h
[24] = Cytotoxicity against human Karpas-417 cells assessed as inhibition of cell viability incubated for 72 hrs by MTS assay; assay type: functional, cell-based; conditions: Karpas-417, 72 h
NCI-H929 = experiment: Cytotoxicity against human NCI-H929 cells assessed as inhibition of cell viability incubated for 72 hrs by MTS assay; assay type: functional, cell-based; conditions: NCI-H929, 72 h
CA46 [25] = experiment: Cytotoxicity against human CA46 cells assessed as inhibition of cell viability incubated for 72 hrs by MTS assay; assay type: functional, cell-based; conditions: CA46, 72 h
[26] = Cytotoxicity against human HEK293T cells assessed as inhibition of cell viability incubated for 72 hrs by MTS assay; assay type: toxicity, cell-based, HEK-293T
[27] = Cytotoxicity against human Fibroblast cells assessed as inhibition of cell viability incubated for 72 hrs by MTS assay; assay type: toxicity, cell-based
Quadruplex DNA [28] = experiment: Thermal stabilization of c-MYC G-quadruplex DNA (unknown origin) assessed as change in melting temperature at 1:5 ratio by FRET melting assay; assay type: nucleic-acid assay
HeLa [29] = experiment: Antiproliferative activity against human HeLa cells assessed as inhibition of cell growth by XTT assay; assay type: functional, cell-based
A549 = experiment: Antiproliferative activity against human A549 cells assessed as inhibition of cell growth by XTT assay; assay type: functional, cell-based
[30] = Antiproliferative activity against human Kidney epithelial cells assessed as inhibition of cell growth by XTT assay; assay type: toxicity, cell-based
HeLa [31] = experiment: Antiproliferative activity against human HeLa cells assessed as inhibition of cell growth incubated for 24 hrs by XTT assay; assay type: functional, cell-based
HCT-116 [32] = experiment: Antiproliferative activity against human HCT-116 cells assessed as inhibition of cell growth incubated for 24 hrs by XTT assay; assay type: functional, cell-based; conditions: HCT-116, 24 h
[33] = Antiproliferative activity against human Kidney epithelial cells assessed as inhibition of cell growth incubated for 24 hrs by XTT assay; assay type: toxicity, cell-based
SMMC-7721 = experiment: Antitumor activity against human SMMC-7721 cells xenografted in mouse model assessed as tumor growth inhibition at 20 mg/kg,ip administrated for 3 weeks; assay type: functional; conditions: SMMC-7721, 504 h

K (Quadruplex DNA [1]): 1 10^7/M
K (Quadruplex DNA [2]): 0.7 10^6/M
ΔTm (Quadruplex DNA [3]): 21 °C
SMILES: Cc1c2ccncc2c(C)c2c1[nH]c1ccc(OCCN(C)C)cc12
IC50 (Raji): 2600 nM
IC50 (CA46 [4]): 13 µM

Ka (Quadruplex DNA [5]): 2.41 10^5/M
ΔTm (Quadruplex DNA [6]): 19.6 °C
SMILES: CN(C)CCn1c(NC(=O)c2ccc3ccc4ccc(C(=O)Nc5nc6ccccc6n5CCN(C)C)nc4c3n2)nc2ccccc21

Ka (Quadruplex DNA [7]): 5.9 10^6/M
ΔTm (Quadruplex DNA [8]): 19.3 °C
SMILES: CN(C)CCCNC(=O)c1ccc(-n2cc(-c3ccc4c(c3)c3ccccc3n4-c3ccc(C(=O)NCCCN(C)C)cc3)nn2)cc1
IC50 (HCT-116 [9]): 2100 nM

K (Quadruplex DNA [10]): 7.71 10^7/M
K (Quadruplex DNA [11]): 5.2 10^5/M
Ka (Quadruplex DNA [12]): 4.85 10^6/M
ΔTm (Quadruplex DNA [13]): 25 °C
ΔTm (Quadruplex DNA [14]): 23 °C
SMILES: NCCC(=O)NCC1=C2CNC(=O)C3=CC(CNC(=O)CCN)=C(CNC(=O)c4cc(CNC(=O)CCN)c(o4)CNC(=O)C4=CC(CNC(=O)CCN)=C(CNC(=O)C(=C1)O2)O4)O3

Ka (Quadruplex DNA [15]): 1.4 10^5/M
ΔTm (Quadruplex DNA [8]): 11.3 °C
ΔTm (Quadruplex DNA [16]): 19.3 °C
SMILES: c1cc2ccc3ccc4nc3c2nc1CNCCCCCCNC4

Ka (Quadruplex DNA [7]): 1.06 10^5/M
Ka (Quadruplex DNA [21]): 7.14 10^5/M
ΔTm (Quadruplex DNA [22]): 7.5 °C
SMILES: Cc1oc2ccc(O)c(CN3CCCCCC3)c2c1C(=O)Nc1ccc(C(F)(F)F)cc1
IC50 (L-363): 3.4 µM
IC50 [17]: 5.75 µM
IC50 [18]: 6.35 µM
IC50 [19]: 4.13 µM
IC50 (KMS-12-PE): 5.3 µM
IC50 [20]: 5.06 µM
IC50 (AMO1): 5.92 µM
IC50 [23]: 6.48 µM
IC50 [24]: 4.8 µM
IC50 (NCI-H929): 4.89 µM
IC50 (CA46 [25]): 9.2 µM
IC50 at 72 h [26]: 34 µM
IC50 at 72 h [27]: 19.6 µM

Ka (Quadruplex DNA [7]): 4 10^6/M
ΔTm (Quadruplex DNA [28]): 22 °C
IC50 (HeLa [29]): 3.8 µM
IC50 (A549): 3.2 µM
SMILES: CN(C)CCCNC(=O)c1csc(NC(=O)c2csc(NC(=O)c3csc(N)n3)n2)n1
IC50 [30]: > 50 µM

Ka (Quadruplex DNA [7]): 1 10^6/M
SMILES: CC1=CC2(c3cc(C)ccn3)C(=O)C=C(c3ccc4ccccc4c3)N2C=C1 (stereo not drawn)

Ka (Quadruplex DNA [7]): 1.3 10^5/M
ΔTm (Quadruplex DNA [28]): 15.3 °C
SMILES: C/C(=N/Nc1nc2ccccc2s1)c1ccc(-c2cccc(C(=O)NCCCN(C)C)c2)o1

Ka (Quadruplex DNA [7]): 4.76 10^6/M
ΔTm (Quadruplex DNA [28]): 15.8 °C
IC50 (HeLa [31]): 3.4 µM
IC50 (HCT-116 [32]): 3.2 µM
SMILES: CN(C)CCCNC(=O)c1ccc(-n2cc(-c3ccc4c(c3)c3ccccc3n4CCCN(C)C)nn2)cc1
IC50 at 24 h [33]: > 30 µM

SMILES: CN(C)CCCNCCC(=O)Nc1ccc(C(=O)Nc2cc(Cl)ccc2-c2nc(NCCCN(C)C)c3ccccc3n2)cc1
inhibition in vivo at 20 mg/kg (SMMC-7721): 58.2%
